Structures can show the parent of a compound that is named as a salt. Where two headings read alike, the source gives them in different places.
Columns and labels:
[1] = target: muscarinic receptors; format: binding, Hooded Lister rats; details: displacement of antagonist 3H-QNB (0.27 nM), rat cerebral cortex membranes, 37° C., 30 min
[2] = target: muscarinic receptors; assay: Radio ligand binding: displacement of the muscarinic agonist 3H-OXO-M from rat cerebral cortex membranes; design: species or system Hooded Lister rats; details: displacement of agonist 3H-OXO-M (2 nM), 2 mM magnesium chloride, 37° C., 30 min

COC(=O)C12CCCN(CC1)C2 (centres unmarked) [Compound E3, Methyl 1-azabicyclo[3.2.1]oct-5-ylcarboxylate oxalate salt]
IC50 [1]: 6.7 µM
IC50 [2]: 0.014 µM

COC(=O)C12CCN(CC1)C2 [Compound E6, Methyl 1-azabicyclo[2.2.1]hept-4-ylcarboxylate oxalate salt]
IC50 [1]: 29 µM
IC50 [2]: 0.042 µM

Cc1noc(C23CCCN(CC2)C3)n1 (centres unmarked) [Compound E10, 5-(3-Methyl-1,2,4-oxadiazol-5-yl)-1-azabicyclo[3.2.1]octane oxalate salt]
IC50 [1]: 4 µM
IC50 [2]: 0.017 µM

Cc1noc(C23CCN(CC2)C3)n1 [Compound E11, 4-(3-Methyl-1,2,4-oxadiazol-5-yl)-1-azabicyclo[2.2.1]-heptane oxalate salt]
IC50 [1]: 14 µM
IC50 [2]: 0.093 µM

c1coc(C23CCCN(CC2)C3)n1 (centres unmarked) [Compound E12, 5-(1,3-Oxazol-2-yl)-1-azabicyclo[3.2.1]octane oxalate salt]
IC50 [1]: 15 µM
IC50 [2]: 0.145 µM

Cc1nnc(C23CCCN(CC2)C3)o1 (centres unmarked) [Compound E13, 5-(2-Methyl-1,3,4-oxadiazol-5-yl)-1-azabicyclo3.2.1]octane oxalate salt]
IC50 [1]: 9.4 µM
IC50 [2]: 0.039 µM

c1nnc(C23CCCN(CC2)C3)o1 (centres unmarked) [Compound E14, 5-(1,3,4-Oxadiazol-2-yl)-1-azabicyclo[3.2.1]octane oxalate salt]
IC50 [1]: 9 µM
IC50 [2]: 0.16 µM

c1cc(C23CCCN(CC2)C3)on1 (centres unmarked) [Compound E15, 5-(1,2-Oxazol-5-yl)-1-azabicyclo[3.2.1]octane oxalate salt]
IC50 [1]: 7.8 µM
IC50 [2]: 0.13 µM

Cc1nnc(C23CCN(CC2)C3)o1 [Compound E17, 4-(2-Methyl-1,3,4-oxadiazol-5-yl)-1-azabicyclo[2.2.1]heptane oxalate salt]
IC50 [1]: 48 µM
IC50 [2]: 0.23 µM

c1coc(C23CCCN(CC2)C3)c1 (centres unmarked) [Compound E21, 5-(Fur-2-yl)-1-azabicyclo[3.2.1]octane hydrochloride salt]
IC50 [1]: 3.8 µM
IC50 [2]: 0.034 µM

Source: patent US4971975A (priority 1987, dated 1990)
